Each block holds one molecule with its values, some of them ahead of it.
Assays:
[1] = cited from earlier work
[2] = Lindenberg et al., 2004; cited from earlier work
[3] = Solubility of albendazole in oil and oil-solubilizer formulations; conditions: 28 formulations
[4] = Release of ABZ from non-oil-based formulations in SIF; type: in vitro ADME
Method: To test the effect of nanosizing, the rate of release of ABZ in SIF when ABZ was used unformulated and when formulated in nanoparticles was compared. Additionally, a physical mixture of ABZ, PVA and Tween 20 was prepared to delineate the effects that the excipients had on drug release and the effect of nanosizing.
For the release study, 17.5 mg of the nanoparticle formulation, or physical mixture were placed in a 50-ml falcon tube. ABZ powder equivalent to the amount present in the physical mixture and nanoparticle formulation was used for the drug release. SIF was added to each formulation and drug release studies were conducted as described for AZT. Concentration of ABZ in release media was measured using HPLC.
ABZ samples after being prepared with methanol were analysed by Agilent 1260 Infinity I Quaternary LC equipped with a diode array detector (DAD). Isocratic elution of 0.1% formic acid in distilled water and acetonitrile was 55:45 with flow rate of 1 ml/min. Injection volume was 5 μl, and Zobrax Eclipse XDB C18 column (4.6×150 mm) was used at 40° C. The running time was 6 minutes and the retention time of ABZ is 3.4 mins. DAD was employed, and readout was detected at the wavelength of 254 nm, bandwidth of 4.0 nm and 10 Hz data acquisition rate. The method gained good peak shape and symmetry.

[5] = Stability of drugs in oleogels; type: physicochemical; conditions: oleogel, 40° C., mean±S.D., n=5
Method: Finally, the stability of drugs in oleogels was tested (Table 3.3). Oleogels loaded with drugs (Azithromycin, Lumefantrine, or Ivermectin) were placed at different temperatures. At various times, drug was extracted from the oleogel and the concentration was measured using HPLC-UV or LC-MS/MS. Drug stability (last column) is represented as mean±S.D., n=5.

[6] = cited from earlier work; remark: listed apart in the source
[7] = model input, Beringer et al., 2005; cited from earlier work
[8] = Method: Solubility of three anti-infectives, azithromycin, praziquantel and lumefantrine, were measured in 108 formulations prepared by mixing various oils and solubilizers (9 oils×11 solubilizers, and 9 oils without solubilizer). Given the focus in rapid clinical translation, the weight fraction of the solubilizer was limited to the maximum level they were used in FDA-approved products.
Approximately two grams of oil-solubilizer mixtures in a 20 mL glass vial. Drug was added in excess to each formulation and the mixture was stirred overnight at room temperature. One milliliter of the mixture was removed, placed in a microcentrifuge tube, and centrifuged at 6000 rpm for 15 min to remove insoluble drug particles. A fraction of the supernant was removed and drug was extracted using methanol or acetonitrile. Drug concentrations in the extracts were measured using HPLC.
An Agilent 1260 Infinity II HPLC system equipped with a quaternary pump, autosampler, thermostat, control module, and diode array detector. Data processing and analysis was performed using OpenLab CDS ChemStation®. Praziquantel chromatographic separations were carried out on an Agilent ZORBAX Eclipse Plus C-18 analytical column (4.6>150 mm) with 5 μm particles, maintained at 40° C. Gradient separation at a flow rate of 1 mL/min was achieved using water and acetonitrile, which corresponds to A and B, respectively. The run time was 5 minutes with a 3-minute post-run and a gradient profile of: 0 min A: 70% and B: 30%, 2.5 min A: 30% and B: 70%. The injection volume was 5 μL. The diode array detector was set using an ultraviolet (UV) detection wavelength of 217 nm with no reference at an acquisition rate of 40 hertz.
Azithromycin chromatographic separations were carried out on an Agilent 4.6×150 mm ZORBAX Eclipse Plus C-18 analytical column with 5 μm particles, maintained at 40° C. Isocratic separation at a flow rate of 1 mL/min was achieved using 10% 10 mM ammonium phosphate dibasic in water and 90% methanol. The run time was 6 minutes. The injection volume was 10 μL. The diode array detector was set using an ultraviolet (UV) detection wavelength of 210 nm with no reference at an acquisition rate of 5 hertz.
Lumefantrine chromatographic separations were carried out on an Agilent Poroshell 120 PFP column (4.6×100 mm) with 2.7 μm particles, maintained at 40° C. Gradient separation at a flow rate of 1 mL/min was achieved using 0.1% formic acid in water and methanol, which corresponds to A and B, respectively. The run time was 7 minutes with a 3-minute post-run and a gradient profile of: 0 min A: 30% and B: 70%, 3 min A: 5% and B: 95%. The injection volume was 10 μL. The diode array detector was set using an ultraviolet detection wavelength of 303 nm with no reference wavelength at an acquisition rate of 40 hertz.

[9] = Stability of AZT during synthesis of oleogel (heating in cottonseed oil at 90° C.); type: physicochemical; conditions: AZT 1 mg/g in cottonseed oil; 0, 5 and 10 mins; one-way ANOVA, α=0.05
Method: Twenty-five milligrams of AZT were added to cottonseed oil in a glass vial at concentration of 1 mg/g. After 60 minutes of sonication, all drug powder was dissolved. The AZT solution was divided into three parts (8 ml each). One part was maintained at room temperature, while the other two were placed on a hot plate at 90° C. for 5 minutes and 10 minutes. Forty microliters from each vial were pipetted into 1.5-ml microcentrifuge tube containing 1 ml of methanol. AZT was extracted from the oil phase into the methanol phase by shaking on a horizontal shaker overnight. Following overnight extraction, the oil phase was separated from the methanol phase by centrifugation at 14000 RPM for 10 minutes. The methanol phase was diluted before analysis using liquid chromatography-mass spectrometry (LC-MS).
AZT concentration in methanol extract was analysed by LC-MS on Agilent 1260 Infinity I Quaternary LC equipped with a diode array detector (DAD) and Agilent 6120B Single Quadrupole mass spectrometer hardware and software. Roxithromycin (RXT) was used as an internal standard of AZT analysis. The linear range of AZT detection was 10-5000 ng/ml. […] The flow rate was 0.75 ml/min while chromatograms were recorded at wavelength of 210 nm, bandwidth of 4.0 nm and 5 Hz data acquisition rate. […]

[10] = In vitro digestion and drug bioaccessibility of praziquantel-loaded gel; type: in vitro ADME; conditions: from oleogel
Method: The digestion of gels were characterized in three simulated conditions—oral, gastric and intestinal phases (fasted state).
Simulated salivary fluid (SSF) pH 7.0 was prepared in the presence of a-amylase based on a previously described method^24,43 with slight modifications. Briefly, SSF stock solution (1.25x concentrated, 3.5 mL) was placed in a glass vial. The 1.25× SSF stock solution contained the following ingredients: 15.1 mmol/L potassium chloride, 3.7 mmol/L potassium dihydrogen phosphate, 13.6 mmol/L sodium bicarbonate, 0.15 mmol/L magnesium chloride and 0.06 mmol/L ammonium carbonate. To this 0.5 mL of a-amylase solution (0.3 mg/mL in SSF stock solution), 0.025 mL of 0.3M calcium chloride and 0.975 mL of water were added and thoroughly mixed.
The SSF was added to 0.5 g praziquantel-loaded gel placed in a pre-heated glass vial at 37° C. containing 5 glass beads to aid in mixing. The vials were placed in an incubator shaker and shaken at 160 rpm and 37° C. One hundred microliters of the sample were withdrawn periodically, centrifuged at 14,000 rpm for 15 min. The supernant was collected and syringe filtered through a 0.22 μm nylon syringe filter (Nalgene Syringe Filters, Thermo Scientific™). Drug concentration in the filtrate was analyzed using HPLC.
In vitro digestion in gastric phase was performed in 7.5 mL simulated gastric fluid (SGF) pH 2 (2 g/L sodium chloride, 2.917 g/L concentrated hydrochloric acid) in the presence of pepsin (3.4 g/L). […] Samples (0.2 mL) were withdrawn periodically, centrifuged at 14,000 rpm for 15 min and syringe filtered through 0.22 μm nylon syringe filters (Nalgene Syringe Filters, Thermo Scientific™) prior to drug quantification with HPLC.
The fasting state simulated intestinal fluid version 2 (FaSSIF-V2) medium pH 6.5 was prepared based on a previously described method^44 in the presence of pancreatin (8×USP specification). […] Samples were then centrifuged for 15 min at 14,000 rpm at room temperature and drug concentration in the supernatant was measured using HPLC.

[11] = Stability of ivermectin during heating; type: physicochemical; conditions: peceol, ricebran wax, cottonseed oil
Method: As manufacturing of the formulation involves heating, the stability of ivermectin during heating was assessed (see FIG. 24).

Molecule: CCCSc1ccc2nc(NC(=O)OC)[nH]c2c1 [ABZ, albendazole]
reported water solubility of albendazole [1]: 41 µg/g
absorption extent [2]: < 5%
solubility in oil and oil-solubilizer formulations higher than reported water solubility [3]: ~10 fold
ABZ released and solubilized, plateau concentration ([4]; 90-minute release, not formulated in oil): 0.05 µg/mL
drug release (in words) ([4]; not formulated in oils, FIGS. 36A-36C): no drug release measured

Molecule: CC[C@H]1OC(=O)[C@H](C)[C@@H](O[C@H]2C[C@@](C)(OC)[C@@H](O)[C@H](C)O2)[C@H](C)[C@@H](O[C@@H]2O[C@H](C)C[C@H](N(C)C)[C@H]2O)[C@](C)(O)C[C@@H](C)CN(C)[C@H](C)[C@@H](O)[C@]1(C)O [AZT, azithromycin]
% drug stable ([5]; 44 days, Propyl gallate): 99 ± 5%
solubility of azithromycin in water ([6]; reference 39): ~0.2 mg/g
ka (absorption rate constant) [7]: 0.452 h⁻¹
solubility of azithromycin in the oils [8]: 6 to 10 mg/g
water solubility lower than certain tested formulations [8]: ~100 fold
AZT concentrations after heating at 90° C. [9]: no statistical effect of temperature on AZT concentrations

Molecule: ivermectin
% drug stable ([5]; 28 days, Butylated hydroxyanisole): 98 ± 11%
drug recovered after heating [11]: 100%

More lines, main results first:

average solubility in other Labrafac lipophile formulations lower than with flaxseed oil [8]: ~1.6 fold
average solubility of lumefantrine [8]: 16.6 ± 3.8 mg/g
solubility in tested formulations higher than reported water solubility [8]: ~10000 fold
solubility of lumefantrine [8]: 26.6 ± 1.8 mg/g
solubility of lumefantrine in the oils [8]: > 10 mg/g
Molecule: CCCCN(CCCC)CC(O)c1cc(Cl)cc2c1-c1ccc(Cl)cc1/C2=C/c1ccc(Cl)cc1 (stereo not drawn) [lumefantrine]
reported water solubility of lumefantrine ([6]; reference 40): < 2 µg/g

solubilized fraction of praziquantel in the aqueous intestinal phase ([10]; FaSSIF-V2 with pancreatin, t=15 min): 51%
praziquantel in the aqueous phase, maximum of total drug content ([10]; simulated gastric digestion (SGF pH 2), within 30 min, plateau to 2 h): 10%
praziquantel detected in the SSF, of total drug content ([10]; simulated salivary fluid): ≤ 1%
solubility in sunflower oil higher than in the rest of the oils [8]: ~2 fold
solubility of praziquantel in most oils [8]: 5 to 7 mg/g
Molecule: O=C(C1CCCCC1)N1CC(=O)N2CCc3ccccc3C2C1 (stereo not drawn) [praziquantel]

From patent US20230181463A1, “OLEOGEL AND OLEOPASTE COMPOSITIONS AND USES THEREOF” (Massachusetts Institute of Technology, priority 2020, published 2023)
